Measured values published in ChEMBL document CHEMBL4184323, “Structure-Guided Design, Synthesis, and Characterization of Next-Generation Meprin β Inhibitors” (J Med Chem, 2018).

How the values were obtained:
[1] = molecular target: MMP2 (Homo sapiens, UniProt P08253); test: Inhibition of human MMP2 assessed as residual activity using Mca-PLGL-(DapDnp)-AR-NH2 as substrate at 200 uM by fluorescence assay relative to control; conditions: human MMP2 enzyme, probe Mca-PLGL-(DapDnp)-AR-NH2, read-out: Activity
[2] = molecular target: MMP13 (Homo sapiens, UniProt P45452); test: Inhibition of human MMP13 assessed as residual activity using Mca-PLGL-(DapDnp)-AR-NH2 as substrate at 200 uM by fluorescence assay relative to control; conditions: human MMP13 enzyme, probe Mca-PLGL-(DapDnp)-AR-NH2, read-out: Activity
[3] = molecular target: MMP9 (Homo sapiens, UniProt P14780); test: Inhibition of human MMP9 assessed as residual activity using Mca-PLGL-(DapDnp)-AR-NH2 as substrate at 200 uM by fluorescence assay relative to control; conditions: human MMP9 enzyme, probe Mca-PLGL-(DapDnp)-AR-NH2, read-out: Activity
[4] = molecular target: T1, ADAM10 (Homo sapiens, UniProt O14672); test: Inhibition of human ADAM10 assessed as residual activity using Abz-LANAVRSSSR-(DapDnp)-AR-NH2 as substrate at 200 uM by fluorescence assay relative to control; conditions: human ADAM10 enzyme, probe Abz-LANAVRSSSR-(DapDnp)-AR-NH2, read-out: Activity
T1 sequence (O14672 whole entry): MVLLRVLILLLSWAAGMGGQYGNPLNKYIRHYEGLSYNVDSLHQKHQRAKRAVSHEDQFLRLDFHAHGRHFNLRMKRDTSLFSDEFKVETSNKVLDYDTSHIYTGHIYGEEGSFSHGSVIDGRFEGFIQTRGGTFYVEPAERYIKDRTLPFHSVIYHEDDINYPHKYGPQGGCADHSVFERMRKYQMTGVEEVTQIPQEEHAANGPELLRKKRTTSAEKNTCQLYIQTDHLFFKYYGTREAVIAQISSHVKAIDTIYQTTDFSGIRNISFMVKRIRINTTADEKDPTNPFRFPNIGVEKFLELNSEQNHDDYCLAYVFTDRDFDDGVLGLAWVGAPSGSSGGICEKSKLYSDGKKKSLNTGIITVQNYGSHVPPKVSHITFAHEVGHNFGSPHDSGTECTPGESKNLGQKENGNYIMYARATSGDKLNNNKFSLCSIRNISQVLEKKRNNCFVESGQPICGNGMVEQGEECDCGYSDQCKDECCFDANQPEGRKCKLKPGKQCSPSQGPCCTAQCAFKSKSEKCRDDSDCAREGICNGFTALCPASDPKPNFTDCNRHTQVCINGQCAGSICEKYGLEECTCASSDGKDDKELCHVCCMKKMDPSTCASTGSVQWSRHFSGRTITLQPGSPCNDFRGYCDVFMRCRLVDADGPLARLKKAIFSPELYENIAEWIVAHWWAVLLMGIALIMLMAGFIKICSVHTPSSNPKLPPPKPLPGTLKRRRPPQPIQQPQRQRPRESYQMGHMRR

[5] = molecular target: ADAM17 (Homo sapiens, UniProt P78536); test: Inhibition of human ADAM17 assessed as residual activity using Abz-LANAVRSSSR-(DapDnp)-AR-NH2 as substrate at 200 uM by fluorescence assay relative to control; conditions: human ADAM17 enzyme, probe Abz-LANAVRSSSR-(DapDnp)-AR-NH2, read-out: Activity
[6] = molecular target: T2, Meprin A subunit beta (Homo sapiens, UniProt Q16820)
T2 sequence (Q16820 whole entry): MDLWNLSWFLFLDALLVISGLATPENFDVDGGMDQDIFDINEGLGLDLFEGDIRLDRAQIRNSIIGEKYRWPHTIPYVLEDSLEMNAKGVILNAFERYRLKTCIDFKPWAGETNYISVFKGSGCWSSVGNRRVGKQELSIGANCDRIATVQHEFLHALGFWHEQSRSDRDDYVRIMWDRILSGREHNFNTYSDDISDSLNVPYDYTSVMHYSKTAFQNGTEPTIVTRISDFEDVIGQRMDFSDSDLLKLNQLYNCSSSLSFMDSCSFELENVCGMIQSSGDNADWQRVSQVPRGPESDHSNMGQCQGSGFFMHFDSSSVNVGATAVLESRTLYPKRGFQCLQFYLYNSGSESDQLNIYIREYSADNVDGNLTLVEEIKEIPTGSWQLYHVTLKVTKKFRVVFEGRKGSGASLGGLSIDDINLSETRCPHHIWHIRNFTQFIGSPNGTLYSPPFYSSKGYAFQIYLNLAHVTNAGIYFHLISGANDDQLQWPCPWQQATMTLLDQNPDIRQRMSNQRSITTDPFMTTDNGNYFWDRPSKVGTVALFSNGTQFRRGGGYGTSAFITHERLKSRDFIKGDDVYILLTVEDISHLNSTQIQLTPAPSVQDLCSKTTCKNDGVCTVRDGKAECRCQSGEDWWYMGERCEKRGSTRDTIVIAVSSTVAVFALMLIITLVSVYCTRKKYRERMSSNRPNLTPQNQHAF
Description: Inhibition of recombinant human meprin beta expressed in yeast using Abz-YVAEAPK(Dnp)G-OH as substrate by fluorescence assay

[7] = molecular target: T3, BMP1 (Homo sapiens, UniProt P13497); test: Inhibition of human BMP1 expressed in Escherichia coli assessed as residual activity using Abz-YVADAPK(Dnp)G-OH as substrate at 200 uM by fluorescence assay relative to control; conditions: probe Abz-YVADAPK(Dnp)G-OH, read-out: Activity
T3 sequence (P13497 whole entry): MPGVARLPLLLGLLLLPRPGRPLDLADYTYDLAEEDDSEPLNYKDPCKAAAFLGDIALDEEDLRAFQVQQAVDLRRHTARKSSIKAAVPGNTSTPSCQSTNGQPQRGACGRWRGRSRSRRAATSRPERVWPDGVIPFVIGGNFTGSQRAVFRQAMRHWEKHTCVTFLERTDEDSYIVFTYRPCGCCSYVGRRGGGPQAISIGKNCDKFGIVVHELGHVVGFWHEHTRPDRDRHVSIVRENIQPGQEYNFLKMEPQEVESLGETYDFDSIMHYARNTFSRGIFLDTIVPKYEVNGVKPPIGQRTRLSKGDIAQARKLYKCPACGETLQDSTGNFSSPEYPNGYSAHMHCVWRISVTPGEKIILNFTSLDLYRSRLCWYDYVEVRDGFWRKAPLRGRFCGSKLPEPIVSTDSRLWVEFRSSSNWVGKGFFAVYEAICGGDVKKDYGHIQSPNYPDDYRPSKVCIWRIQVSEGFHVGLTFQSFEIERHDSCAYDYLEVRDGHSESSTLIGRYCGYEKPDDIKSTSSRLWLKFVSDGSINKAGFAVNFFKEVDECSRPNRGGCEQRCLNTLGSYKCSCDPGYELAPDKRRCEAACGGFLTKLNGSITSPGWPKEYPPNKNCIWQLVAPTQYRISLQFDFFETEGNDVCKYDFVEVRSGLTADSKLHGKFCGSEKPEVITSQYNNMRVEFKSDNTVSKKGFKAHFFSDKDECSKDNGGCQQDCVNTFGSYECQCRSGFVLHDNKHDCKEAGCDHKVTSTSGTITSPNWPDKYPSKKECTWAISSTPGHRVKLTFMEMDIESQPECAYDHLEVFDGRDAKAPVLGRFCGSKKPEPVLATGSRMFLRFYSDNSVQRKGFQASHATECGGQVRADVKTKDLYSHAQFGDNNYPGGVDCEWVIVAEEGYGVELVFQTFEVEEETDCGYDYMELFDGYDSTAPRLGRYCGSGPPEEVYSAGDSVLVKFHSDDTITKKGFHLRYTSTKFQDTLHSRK

[8] = Drug absorption in Sprague-Dawley rat at 10 mg/kg, po by LC-MS analysis; format: ADME, organism-based; conditions: in vivo, read-out: Fabs
[9] = Clearance in Sprague-Dawley rat at 6 mg/kg, iv by LC-MS analysis; format: ADME, organism-based; conditions: in vivo
[10] = Tmax in Sprague-Dawley rat at 10 mg/kg, po by LC-MS analysis; format: ADME, organism-based; conditions: in vivo
[11] = Cmax in Sprague-Dawley rat at 10 mg/kg, po by LC-MS analysis; format: ADME, organism-based; set-up: dose 10 mg/kg, route oral; conditions: in vivo
[12] = molecular target: CYP2C9 (Homo sapiens, UniProt P11712); test: Inhibition of recombinant human CYP2C9 expressed in baculosomes assessed as residual activity at 25 uM using BOMCC substrate by fluorescence assay relative to control; format: ADME; conditions: probe BOMCC, read-out: Activity
[13] = test system: Rattus norvegicus; test: Volume of distribution in Sprague-Dawley rat at 10 mg/kg, po by LC-MS analysis; format: ADME, organism-based; conditions: in vivo
[14] = Half life in Sprague-Dawley rat at 6 mg/kg, iv by LC-MS analysis; format: ADME, organism-based; conditions: in vivo
[15] = molecular target: CYP3A4 (Homo sapiens, UniProt P08684); test: Inhibition of recombinant human CYP3A4 expressed in baculosomes assessed as residual activity at 25 uM using BOMCC substrate by fluorescence assay relative to control; format: ADME; conditions: probe BOMCC, read-out: Activity
[16] = Volume of distribution at steady state in Sprague-Dawley rat at 6 mg/kg, iv by LC-MS analysis; format: ADME, organism-based; conditions: in vivo, read-out: Vdss
[17] = test system: SH-SY5Y; test: Cytotoxicity in human SH-SY5Y cells assessed as cell viability at 30 uM after 24 hrs by CytoTox-ONE-based assay relative to control; format: functional; conditions: read-out: Activity
[18] = test system: HepG2; test: Cytotoxicity in human HepG2 cells assessed as cell viability at 30 uM after 24 hrs by CytoTox-ONE-based assay relative to control; format: functional; conditions: HepG2, 24 h, read-out: Activity
[19] = organism: Homo sapiens; test: Selectivity ratio of IC50 for recombinant human meprin alpha expressed in insect cells to IC50 for recombinant human meprin beta expressed in yeast
[20] = test system: HepG2; test: Cytotoxicity in human HepG2 cells assessed as cell viability at 100 uM after 24 hrs by CytoTox-ONE-based assay relative to control; format: functional; conditions: HepG2, 24 h, read-out: Activity
[21] = test system: SH-SY5Y; test: Cytotoxicity in human SH-SY5Y cells assessed as cell viability at 100 uM after 24 hrs by CytoTox-ONE-based assay relative to control; format: functional; conditions: read-out: Activity
[22] = Tmax in Sprague-Dawley rat at 10 mg/kg, ip by LC-MS analysis; format: ADME, organism-based; conditions: in vivo
[23] = Drug absorption in Sprague-Dawley rat at 10 mg/kg, ip by LC-MS analysis; format: ADME, organism-based; conditions: in vivo, read-out: Fabs
[24] = Cmax in Sprague-Dawley rat at 10 mg/kg, ip by LC-MS analysis; format: ADME, organism-based; set-up: dose 10 mg/kg, route intraperitoneal; conditions: in vivo

Sequence of MMP9 (P14780 whole entry): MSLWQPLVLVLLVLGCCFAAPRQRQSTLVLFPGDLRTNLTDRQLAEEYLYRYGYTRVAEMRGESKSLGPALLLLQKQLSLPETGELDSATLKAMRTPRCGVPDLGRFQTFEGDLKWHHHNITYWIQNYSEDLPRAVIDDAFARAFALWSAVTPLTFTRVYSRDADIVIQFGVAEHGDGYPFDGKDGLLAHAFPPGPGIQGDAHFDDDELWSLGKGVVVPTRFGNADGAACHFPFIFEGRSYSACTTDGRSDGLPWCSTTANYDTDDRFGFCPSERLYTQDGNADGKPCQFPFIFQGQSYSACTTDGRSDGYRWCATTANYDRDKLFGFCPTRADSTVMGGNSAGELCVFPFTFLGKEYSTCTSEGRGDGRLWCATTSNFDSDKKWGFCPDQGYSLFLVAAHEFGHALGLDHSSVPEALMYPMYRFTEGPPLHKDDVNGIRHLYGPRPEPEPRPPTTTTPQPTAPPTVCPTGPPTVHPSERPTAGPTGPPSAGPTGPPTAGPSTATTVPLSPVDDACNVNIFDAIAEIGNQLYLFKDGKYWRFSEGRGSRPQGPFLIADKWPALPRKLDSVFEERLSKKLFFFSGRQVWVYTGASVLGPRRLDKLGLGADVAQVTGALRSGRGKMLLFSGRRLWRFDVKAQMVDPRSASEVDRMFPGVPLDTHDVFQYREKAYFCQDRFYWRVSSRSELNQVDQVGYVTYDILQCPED
Sequence of ADAM17 (P78536 whole entry): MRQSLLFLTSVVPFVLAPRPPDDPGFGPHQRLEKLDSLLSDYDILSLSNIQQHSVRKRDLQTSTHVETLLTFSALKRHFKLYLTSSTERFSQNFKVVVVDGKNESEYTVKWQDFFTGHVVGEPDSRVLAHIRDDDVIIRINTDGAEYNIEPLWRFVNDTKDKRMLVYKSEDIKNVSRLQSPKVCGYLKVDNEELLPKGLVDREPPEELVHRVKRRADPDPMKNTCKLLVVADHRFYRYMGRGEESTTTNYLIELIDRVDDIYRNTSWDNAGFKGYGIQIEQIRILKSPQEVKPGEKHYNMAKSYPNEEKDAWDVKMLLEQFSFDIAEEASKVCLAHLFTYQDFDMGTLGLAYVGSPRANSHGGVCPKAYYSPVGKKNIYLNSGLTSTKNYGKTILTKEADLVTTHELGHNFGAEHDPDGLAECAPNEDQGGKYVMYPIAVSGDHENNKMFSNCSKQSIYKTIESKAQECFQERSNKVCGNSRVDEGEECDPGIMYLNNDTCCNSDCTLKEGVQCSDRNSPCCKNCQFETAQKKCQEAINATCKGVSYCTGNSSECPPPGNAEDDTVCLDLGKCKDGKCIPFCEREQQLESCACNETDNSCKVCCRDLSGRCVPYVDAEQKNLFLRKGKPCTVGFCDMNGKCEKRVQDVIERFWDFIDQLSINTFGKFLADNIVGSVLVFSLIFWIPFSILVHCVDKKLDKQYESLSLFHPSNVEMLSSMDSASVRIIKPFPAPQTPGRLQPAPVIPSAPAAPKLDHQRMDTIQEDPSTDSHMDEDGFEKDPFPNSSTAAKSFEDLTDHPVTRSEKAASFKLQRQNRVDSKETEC
Sequence of MMP2 (P08253 whole entry): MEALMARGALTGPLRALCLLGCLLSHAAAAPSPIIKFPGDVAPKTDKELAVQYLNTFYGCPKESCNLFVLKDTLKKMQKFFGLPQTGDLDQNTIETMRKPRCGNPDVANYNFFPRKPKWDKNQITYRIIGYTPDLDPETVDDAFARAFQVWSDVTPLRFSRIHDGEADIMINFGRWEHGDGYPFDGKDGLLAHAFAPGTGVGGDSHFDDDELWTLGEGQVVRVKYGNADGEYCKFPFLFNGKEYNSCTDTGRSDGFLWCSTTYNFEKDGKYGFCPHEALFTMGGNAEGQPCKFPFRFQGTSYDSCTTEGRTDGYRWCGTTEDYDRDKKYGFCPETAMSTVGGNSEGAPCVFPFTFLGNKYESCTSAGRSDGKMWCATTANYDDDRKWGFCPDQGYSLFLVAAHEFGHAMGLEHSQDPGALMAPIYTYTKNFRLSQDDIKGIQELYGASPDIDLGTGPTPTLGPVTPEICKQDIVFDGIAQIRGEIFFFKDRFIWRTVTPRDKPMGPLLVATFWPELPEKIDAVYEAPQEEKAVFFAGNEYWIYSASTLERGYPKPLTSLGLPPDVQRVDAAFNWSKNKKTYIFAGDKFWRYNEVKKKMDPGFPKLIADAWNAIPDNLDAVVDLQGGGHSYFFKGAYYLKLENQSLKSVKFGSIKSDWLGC
Sequence of CYP3A4 (P08684 whole entry): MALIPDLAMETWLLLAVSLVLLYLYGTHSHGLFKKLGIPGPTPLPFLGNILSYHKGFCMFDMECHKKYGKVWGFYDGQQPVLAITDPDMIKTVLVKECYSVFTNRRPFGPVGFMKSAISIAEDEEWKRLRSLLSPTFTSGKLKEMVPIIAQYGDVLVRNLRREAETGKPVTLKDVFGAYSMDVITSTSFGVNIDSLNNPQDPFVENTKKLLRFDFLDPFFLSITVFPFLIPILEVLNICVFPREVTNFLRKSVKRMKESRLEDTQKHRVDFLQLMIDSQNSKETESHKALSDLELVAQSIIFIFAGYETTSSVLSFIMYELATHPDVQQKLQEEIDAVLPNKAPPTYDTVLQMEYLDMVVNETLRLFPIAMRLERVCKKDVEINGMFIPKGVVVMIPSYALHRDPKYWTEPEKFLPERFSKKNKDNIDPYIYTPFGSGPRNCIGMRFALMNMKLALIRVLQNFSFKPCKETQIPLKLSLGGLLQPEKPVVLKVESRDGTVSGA
Sequence of CYP2C9 (P11712 whole entry): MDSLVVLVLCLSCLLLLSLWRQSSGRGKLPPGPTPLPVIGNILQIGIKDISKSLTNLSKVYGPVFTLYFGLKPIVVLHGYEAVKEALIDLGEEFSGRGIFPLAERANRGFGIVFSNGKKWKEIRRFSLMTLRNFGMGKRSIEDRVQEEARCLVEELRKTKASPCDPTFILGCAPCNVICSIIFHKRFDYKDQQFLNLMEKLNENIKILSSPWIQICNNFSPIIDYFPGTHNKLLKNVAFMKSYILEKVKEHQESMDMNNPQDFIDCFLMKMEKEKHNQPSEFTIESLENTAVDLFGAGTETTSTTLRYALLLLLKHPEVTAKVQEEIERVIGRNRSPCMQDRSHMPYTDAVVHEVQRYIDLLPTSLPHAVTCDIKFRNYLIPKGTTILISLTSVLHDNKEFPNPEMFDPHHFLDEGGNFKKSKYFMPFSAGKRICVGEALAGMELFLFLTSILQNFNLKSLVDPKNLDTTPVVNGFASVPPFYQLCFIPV

Molecule `COc1ccc(S(=O)(=O)N(CC(=O)NO)Cc2cccc(C(=O)O)c2)cc1` has an activity at 200 µM [1] of under 1%, an activity at 200 µM [2] of under 1% and an activity at 200 µM [3] of 2%. For the same molecule, the activity at 200 µM [4] was under 1% and the activity at 200 µM [5] was under 1%.

Work on `COc1ccc(CN(CC(=O)NO)Cc2cccc(C(=O)O)c2)cc1F` yielded an IC50 [6] of 375 nM.

With `O=C(CN(Cc1ccc(F)c(O)c1F)Cc1ccc(F)c(O)c1F)NO` the activity at 200 µM [1] was 67%, the activity at 200 µM [2] was 102% and the activity at 200 µM [7] was 34%. For the same molecule, the activity at 200 µM [3] was 94%, the Fa [8] was 5% and the clearance [9] was 21.8 mL/min/kg. The Tmax [10] was 7.8 min, the activity at 200 µM [4] was 99% and the Cmax [11] was 1080 ng/mL. The activity at 25 µM [12] was 101%, the Vd [13] was 0.045 L and the half-life [14] was 66 min. For the same molecule, the activity at 25 µM [15] was 87%, the Vd [16] was 0.41 L/kg and the viability at 30 µM [17] was 92%. The viability at 30 µM [18] was 99% and the activity at 200 µM [5] was 92%.

Work on `COc1ccc(CN(CC(=O)NO)Cc2cccc(C(=O)O)c2)cc1` yielded a Ratio IC50 [19] of 40, a viability at 100 µM [20] of 100% and an activity at 200 µM [1] of 68%. It also gave an activity at 200 µM [2] of 94%, an activity at 200 µM [3] of 85% and an activity at 200 µM [4] of 87%. For the same molecule, the activity at 25 µM [12] was 102%, the activity at 25 µM [15] was 80% and the viability at 100 µM [21] was 87%. It also gave an IC50 [6] of 77 nM and an activity at 200 µM [5] of 60%.

In the case of `COc1c(Cl)ccc(CN(CC(=O)NO)Cc2ccc(Cl)c(OC)c2F)c1F`, the IC50 [6] is reported as 12800 nM.

In the case of `O=C(CN(Cc1ccc(Cl)c(O)c1F)Cc1ccc(Cl)c(O)c1F)NO`, the activity at 200 µM [1] is reported as 41%, the Tmax [22] is reported as 10.2 min and the Fa [23] is reported as 84%. For the same molecule, the Cmax [24] was 10900 ng/mL, the activity at 200 µM [2] was 93% and the activity at 200 µM [7] was 50%. For the same molecule, the activity at 200 µM [3] was 81%, the Fa [8] was 9% and the clearance [9] was 21 mL/min/kg. The Tmax [10] was 15 min, the activity at 200 µM [4] was 97% and the Cmax [11] was 810 ng/mL. The activity at 25 µM [12] was 68%, the Vd [13] was 0.058 L and the half-life [14] was 114 min. It also gave an activity at 25 µM [15] of 76%, a Vd [16] of 0.33 L/kg and a viability at 30 µM [17] of 93%. The viability at 30 µM [18] was 101% and the activity at 200 µM [5] was 82%.
